From PubChem BioAssay (NCI)
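Cells were grown in 96-well plates and exposed to each compound for 48 hours at five concentrations; endpoints were interpolated linearly between bracketing concentrations, or set to the highest concentration if not reached. The concentration for 50% growth inhibition is given as GI50. TGI: concentration producing complete growth inhibition.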

Columns and labels:
Experiment in all cases: inhibition of tumour cell growth, NCI panel, 48 h
OVCAR-3 ovarian = tested on: OVCAR-3 ovarian
OVCAR-5 ovarian = tested on: OVCAR-5 ovarian
HCC-2998 colon = tested on: HCC-2998 colon
UACC-62 melanoma = tested on: UACC-62 melanoma
HOP-92 NSCLC = tested on: HOP-92 NSCLC
SK-OV-3 ovarian = tested on: SK-OV-3 ovarian
IGROV1 ovarian = tested on: IGROV1 ovarian
HCT-116 colon = tested on: HCT-116 colon
MDA-MB-231 breast = tested on: MDA-MB-231 breast
SF-539 CNS = tested on: SF-539 CNS
HOP-62 NSCLC = tested on: HOP-62 NSCLC
SN12C renal = tested on: SN12C renal
RXF 393 renal = tested on: RXF 393 renal
SF-295 CNS = tested on: SF-295 CNS
LOX IMVI melanoma = tested on: LOX IMVI melanoma
HCT-15 colon = tested on: HCT-15 colon
CAKI-1 renal = tested on: CAKI-1 renal
NCI-H522 lung = tested on: NCI-H522 lung
UO-31 renal = tested on: UO-31 renal
SW-620 colon = tested on: SW-620 colon
PC-3 prostate = tested on: PC-3 prostate
SNB-75 CNS = tested on: SNB-75 CNS
DU-145 prostate = tested on: DU-145 prostate
MDA-MB-435 = tested on: MDA-MB-435
KM12 colon = tested on: KM12 colon
BT-549 breast = tested on: BT-549 breast
OVCAR-8 ovarian = tested on: OVCAR-8 ovarian
K-562 leukemia = tested on: K-562 leukemia
NCI-H23 lung = tested on: NCI-H23 lung
NCI/ADR-RES ovarian = tested on: NCI/ADR-RES ovarian
EKVX NSCLC = tested on: EKVX NSCLC
COLO 205 colon = tested on: COLO 205 colon
U251 CNS = tested on: U251 CNS
HS 578T breast = tested on: HS 578T breast
MALME-3M melanoma = tested on: MALME-3M melanoma
ACHN renal = tested on: ACHN renal
SK-MEL-28 melanoma = tested on: SK-MEL-28 melanoma
786-0 renal = tested on: 786-0 renal
A498 renal = tested on: A498 renal
OVCAR-4 ovarian = tested on: OVCAR-4 ovarian
HL-60(TB) leukemia = tested on: HL-60(TB) leukemia
UACC-257 melanoma = tested on: UACC-257 melanoma
HT29 colon = tested on: HT29 colon
SR leukemia = tested on: SR leukemia
SK-MEL-2 melanoma = tested on: SK-MEL-2 melanoma
A549 NSCLC = tested on: A549 NSCLC
T-47D breast = tested on: T-47D breast
TK-10 renal = tested on: TK-10 renal
NCI-H226 lung = tested on: NCI-H226 lung
M14 melanoma = tested on: M14 melanoma
RPMI-8226 leukemia = tested on: RPMI-8226 leukemia
CCRF-CEM leukemia = tested on: CCRF-CEM leukemia

COc1cccc2c(Nc3ccc(C(=O)O)cc3)cc(-c3ccccc3)nc12
GI50 (OVCAR-3 ovarian): > 100 µM
TGI (OVCAR-3 ovarian): > 100 µM
GI50 (OVCAR-5 ovarian): > 100 µM
TGI (OVCAR-5 ovarian): > 100 µM
GI50 (HCC-2998 colon): > 100 µM
TGI (HCC-2998 colon): > 100 µM
GI50 (UACC-62 melanoma): > 100 µM
TGI (UACC-62 melanoma): > 100 µM
GI50 (HOP-92 NSCLC): 39.4 µM
TGI (HOP-92 NSCLC): > 100 µM
GI50 (SK-OV-3 ovarian): > 100 µM
TGI (SK-OV-3 ovarian): > 100 µM
GI50 (IGROV1 ovarian): > 100 µM
TGI (IGROV1 ovarian): > 100 µM
GI50 (HCT-116 colon): > 100 µM
TGI (HCT-116 colon): > 100 µM
GI50 (MDA-MB-231 breast): > 100 µM
TGI (MDA-MB-231 breast): > 100 µM
GI50 (SF-539 CNS): > 100 µM
TGI (SF-539 CNS): > 100 µM
GI50 (HOP-62 NSCLC): > 100 µM
TGI (HOP-62 NSCLC): > 100 µM
GI50 (SN12C renal): > 100 µM
TGI (SN12C renal): > 100 µM
GI50 (RXF 393 renal): > 100 µM
TGI (RXF 393 renal): > 100 µM
GI50 (SF-295 CNS): > 100 µM
TGI (SF-295 CNS): > 100 µM
GI50 (LOX IMVI melanoma): > 100 µM
TGI (LOX IMVI melanoma): > 100 µM
GI50 (HCT-15 colon): > 100 µM
TGI (HCT-15 colon): > 100 µM
GI50 (CAKI-1 renal): > 100 µM
TGI (CAKI-1 renal): > 100 µM
GI50 (NCI-H522 lung): > 100 µM
TGI (NCI-H522 lung): > 100 µM
GI50 (UO-31 renal): > 100 µM
TGI (UO-31 renal): > 100 µM
GI50 (SW-620 colon): > 100 µM
TGI (SW-620 colon): > 100 µM
GI50 (PC-3 prostate): > 100 µM
TGI (PC-3 prostate): > 100 µM
GI50 (SNB-75 CNS): 72.3 µM
TGI (SNB-75 CNS): > 100 µM
GI50 (DU-145 prostate): > 100 µM
TGI (DU-145 prostate): > 100 µM
GI50 (MDA-MB-435): > 100 µM
TGI (MDA-MB-435): > 100 µM
GI50 (KM12 colon): > 100 µM
TGI (KM12 colon): > 100 µM
GI50 (BT-549 breast): > 100 µM
TGI (BT-549 breast): > 100 µM
GI50 (OVCAR-8 ovarian): > 100 µM
TGI (OVCAR-8 ovarian): > 100 µM
GI50 (K-562 leukemia): > 100 µM
TGI (K-562 leukemia): > 100 µM
GI50 (NCI-H23 lung): > 100 µM
TGI (NCI-H23 lung): > 100 µM
GI50 (NCI/ADR-RES ovarian): > 100 µM
TGI (NCI/ADR-RES ovarian): > 100 µM
GI50 (EKVX NSCLC): > 100 µM
TGI (EKVX NSCLC): > 100 µM
GI50 (COLO 205 colon): > 100 µM
TGI (COLO 205 colon): > 100 µM
GI50 (U251 CNS): > 100 µM
TGI (U251 CNS): > 100 µM
GI50 (HS 578T breast): > 100 µM
TGI (HS 578T breast): > 100 µM
GI50 (MALME-3M melanoma): > 100 µM
TGI (MALME-3M melanoma): > 100 µM
GI50 (ACHN renal): > 100 µM
TGI (ACHN renal): > 100 µM
GI50 (SK-MEL-28 melanoma): > 100 µM
TGI (SK-MEL-28 melanoma): > 100 µM
GI50 (786-0 renal): > 100 µM
TGI (786-0 renal): > 100 µM
GI50 (A498 renal): > 100 µM
TGI (A498 renal): > 100 µM
GI50 (OVCAR-4 ovarian): > 100 µM
TGI (OVCAR-4 ovarian): > 100 µM
GI50 (HL-60(TB) leukemia): > 100 µM
TGI (HL-60(TB) leukemia): > 100 µM
GI50 (UACC-257 melanoma): > 100 µM
TGI (UACC-257 melanoma): > 100 µM
GI50 (HT29 colon): > 100 µM
TGI (HT29 colon): > 100 µM
GI50 (SR leukemia): > 100 µM
TGI (SR leukemia): > 100 µM
GI50 (SK-MEL-2 melanoma): > 100 µM
TGI (SK-MEL-2 melanoma): > 100 µM
GI50 (A549 NSCLC): > 100 µM
TGI (A549 NSCLC): > 100 µM
GI50 (T-47D breast): 84.5 µM
TGI (T-47D breast): > 100 µM
GI50 (TK-10 renal): > 100 µM
TGI (TK-10 renal): > 100 µM
GI50 (NCI-H226 lung): > 100 µM
TGI (NCI-H226 lung): > 100 µM
GI50 (M14 melanoma): > 100 µM
TGI (M14 melanoma): > 100 µM
GI50 (RPMI-8226 leukemia): > 100 µM
TGI (RPMI-8226 leukemia): > 100 µM
GI50 (CCRF-CEM leukemia): > 100 µM
TGI (CCRF-CEM leukemia): > 100 µM
